# Results reported in publication PMC3857906, “Ligand-Specific Regulation of the Endogenous Mu-Opioid Receptor by Chronic Treatment with Mu-Opioid Peptide Agonists” (BioMed Research International, 2013).
# Where two headings read alike, the source gives them in different places.
# Experiments:
# [1] = Tail-flick (TF) antinociceptive assay after icv peptide administration; format: in vivo, rat; settings: for treatment duration until behavioral tolerance complete: 10 μg icv twice daily, data not shown
# Experimental: For intracerebroventricular (icv) peptide administration, the rats were implanted with a stainless steel Luer cannula (10 mm long) aimed at the right lateral cerebral ventricle under Nembutal (35 mg/kg, intraperitoneally) anesthesia. The stereotaxic coordinates were 0.2 mm posterior, 1.7 mm lateral to the bregma, and 3.7 mm deep from the dural surface, according to the atlas of Pellegrino et al.. Cannulas were secured to the skull with dental cement and acrylate. The experiments were started 5 days after icv cannulation. All icv treatments were delivered to freely moving animals to prevent unspecific effects. Upon conclusion of the experiments, 10 μL of methylene blue was injected into the ventricle of decapitated animals and the position of the cannula was inspected visually. Animals with improper cannula placement were excluded from the final statistical analysis.
# (§1) The peptides were dissolved in artificial cerebrospinal fluid (CSF) and injected in a volume of 2 μL. Endomorphins were administered either acutely at the indicated doses (100 pg–20 μg) or chronically at 20 μg for 10 days (twice daily) and tested at the indicated times. Vehicle control groups obtaining CSF were used in all experiments, and no changes were detected in the antinociceptive response of the control group. […] Animals were killed 16 hrs after drug treatments by decapitation immediately followed by subcellular fractionation.
# The original method of D'Amour was used to determine analgesia in the rat by measuring the time required to respond to a radiating heat stimulus. A beam light was focused on the tip of the tail, and the latency required for the rat to remove its tail was determined before (baseline) and after drug administration. The animals were tested at the times shown after injection of the peptides. The antinociceptive effect was expressed according to the equation: (TFn − TFo) × 100/TFmax − TFo, where TFo is the tail-flick latency before drug administration, TFn is the value of a repeated corresponding measurement after drug injection, and TFmax indicates the cutoff time which was set at 10 sec in our assays. Statistical analysis of the data of tail-flick antinociceptive test was made by ANOVA. For significant ANOVA values, groups were compared by Tukey's test for multiple comparisons with unequal cell size. A probability level, P < 0.05, was accepted to label significant differences.
# mu-opioid receptors [2] = biological target: T1, mu-opioid receptors (Rattus norvegicus, UniProt P33535); test: [3H]DAMGO homologous displacement binding in rat brain subcellular fractions (SPM, MI) after in vivo treatment; design: fresh forebrains of four rats were pooled, gently homogenized; from tissue; host or cells: rat forebrain, synaptic plasma membrane (SPM) and microsomal (MI) fractions, from vehicle- or peptide-treated animals; settings: chronic treatment, vs vehicle control
# Experimental: as §1, with “times.” for “times. Vehicle control groups obtaining CSF were used in all experiments, and no changes were detected in the antinociceptive response of the control group.”
# Subcellular fractions of rat brains were purified as published. Briefly, fresh forebrains of four rats were pooled, gently homogenized in 10 volumes (v/w) of ice-cold buffer (5 mM Tris-HCl pH 7.4, 50 μM CaCl2, 0.5 mM dithiothreitol), and supplemented with 10% sucrose. All sucrose solutions were made in the above buffer. The homogenate was spun at 1,000 ×g for 10 min. The resulting pellet was resuspended in the above buffer and spun again. The combined supernatants were spun at 12,000 ×g for 20 min. The pellets were suspended in 10% sucrose and subjected to consecutive centrifugations at 20,000 ×g for 25 min and 14,000 ×g for 20 min twice resulting in crude synaptic plasma membranes (SPM). […]
# Filters were rapidly washed with 3 × 5 mL ice-cold 50 mM Tris-HCl (pH 7.4) buffer, air-dried, and counted in a toluene-based scintillation cocktail in a Wallac 1409 scintillation counter (Wallac, Turku, Finland). […]
# [3] = shown previously; cited from earlier work
# [4] = biological target: T2, mu-opioid receptors (G-protein activation) (Rattus norvegicus, UniProt P33535); test: Ligand-stimulated [35S]GTPγS functional assay in crude rat brain membranes; format: biochemical
# T2 construct: from tissue; host or cells: rat brain without cerebella, crude membranes
# Experimental: (§2) The assay was performed as published with slight modifications. Briefly, rat brain membrane fractions (≈10 μg of protein) were incubated with [^35S]GTPγS (0.05 nM) and 5-6 concentrations (10^−9−10^−4 M) of opioid peptides in the presence of 100 μM GDP in Tris-EGTA (50 mM Tris-HCl, 1 mM EGTA and 5 mM MgCl2; pH 7.4) buffer in a total volume of 1 mL for 60 min at 30°C. Nonspecific binding was determined with 10 μM GTPγS and subtracted. Bound and free [^35S]GTPγS were separated by vacuum filtration through Whatman GF/F filters using a Brandel M24-R Cell Harvester (Brandel, Gaithersburg, MD, USA). Filters were rapidly washed with 3 × 5 mL ice-cold 50 mM Tris-HCl (pH 7.4) buffer, air-dried, and counted in a toluene-based scintillation cocktail in a Wallac 1409 scintillation counter (Wallac, Turku, Finland). All assays were performed in triplicate and repeated at least three times. Curves were constructed and analyzed by fitting sigmoidal dose-response curves using the GraphPad Prism 4 program (GraphPad Prism Software Inc) to obtain potency (EC50, concentration of the ligand to give half-maximal effect) and efficacy (E max, % maximal stimulation over basal activity) values. Basal activities were measured in the absence of opioid ligands and set as 0%. The data reported are means ± S.E.M.
# [5] = biological target: T3, mu-opioid receptors (coupling to G-proteins) (Rattus norvegicus, UniProt P33535); test: DAMGO-stimulated [35S]GTPγS binding in rat brain subcellular fractions (SPM, MI) after in vivo chronic opioid peptide treatment; format: biochemical; settings: for effect of chronic treatment on G-protein coupling / [35S]GTPγS incorporation: 10 μg icv twice daily for 8 days
# T3 construct: fresh forebrains of four rats were pooled, gently homogenized; from tissue; host or cells: rat forebrain, synaptic plasma membrane (SPM) and microsomal (MI) fractions, from vehicle- or peptide-treated animals
# Experimental: The peptides were dissolved in artificial cerebrospinal fluid (CSF) and injected in a volume of 2 μL. […] Animals were killed 16 hrs after drug treatments by decapitation immediately followed by subcellular fractionation.
# Subcellular fractions of rat brains were purified as published. Briefly, fresh forebrains of four rats were pooled, gently homogenized in 10 volumes (v/w) of ice-cold buffer (5 mM Tris-HCl pH 7.4, 50 μM CaCl2, 0.5 mM dithiothreitol), and supplemented with 10% sucrose. All sucrose solutions were made in the above buffer. The homogenate was spun at 1,000 ×g for 10 min. The resulting pellet was resuspended in the above buffer and spun again. The combined supernatants were spun at 12,000 ×g for 20 min. The pellets were suspended in 10% sucrose and subjected to consecutive centrifugations at 20,000 ×g for 25 min and 14,000 ×g for 20 min twice resulting in crude synaptic plasma membranes (SPM). The resulting pellets were lysed followed by fractionation on a 10%, 28.5%, and 34% sucrose density step gradient that was spun at 100,000 ×g for 2 h. Highly enriched SPMs were obtained from the 28/34% interface. Crude microsomal (MI) fractions were obtained from the 12,000 ×g supernatant by consecutive centrifugations at 20,000 ×g for 25 min and 100,000 ×g for 1 h. MI fractions were purified on a 10% and 28.5% sucrose step gradient centrifuged at 100,000 ×g for 2 h and collected at 10/28.5% interface. SPM and MI fractions were diluted threefold with 50 mM Tris-HCl buffer and pelleted at 100,000 ×g for 1 h to remove sucrose. The resulting pellets were taken up in 50 mM Tris-HCl (pH 7.4) buffer to yield in 0.3–0.8 mg membrane protein/ml and were freshly used.
# as §2
# mu-opioid receptors [6] = biological target: T1, mu-opioid receptors; settings: icv administration, in situ autoradiography; cited from earlier work
# T3 sequence (P33535 whole entry): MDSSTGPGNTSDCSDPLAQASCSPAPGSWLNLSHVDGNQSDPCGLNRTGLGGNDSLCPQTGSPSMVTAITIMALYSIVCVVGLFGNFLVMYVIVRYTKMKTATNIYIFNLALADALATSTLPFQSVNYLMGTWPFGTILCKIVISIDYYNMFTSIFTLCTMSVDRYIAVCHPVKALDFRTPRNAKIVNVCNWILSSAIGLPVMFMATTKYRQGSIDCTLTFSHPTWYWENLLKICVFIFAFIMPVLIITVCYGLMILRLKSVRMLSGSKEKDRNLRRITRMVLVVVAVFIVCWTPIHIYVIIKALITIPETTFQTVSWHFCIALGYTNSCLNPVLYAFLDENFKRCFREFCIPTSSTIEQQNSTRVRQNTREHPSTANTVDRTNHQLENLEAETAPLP
# T1 sequence (P33535 whole entry): as above
# T2 sequence (P33535 whole entry): as above
compound,measurement,setting,value
"NC(=O)[C@H](Cc1ccccc1)NC(=O)[C@H](Cc1ccccc1)NC(=O)[C@H]1CCCC[C@H]1NC(=O)[C@@H](N)Cc1ccc(O)cc1 [ACHC-EM2, cis-1S,2R-aminocyclohexanecarboxylic acid^2-endomorphin-2]",treatment duration until analgesic tolerance complete (antinociceptive effect ceased),"[1]; 20 μg icv twice daily, rat tail-flick",≤ 10 days
same,day by which decrease of antinociceptive effect became statistically significant vs day 1,"[1]; 20 μg icv twice daily, tested 5 and 15 min after injection",≤ 5 days
same,time of peak acute antinociceptive effect,"[1]; rat tail-flick, after icv injection",10 to 15 min
same,time by which acute antinociceptive effect dissipated,"[1]; rat tail-flick, following icv injection",≤ 40 min
same,increase in analgesic response compared to base-line values,"[1]; rat tail-flick, icv, lower doses, concentration-dependent",20–50%
"C[C@@H](NC(=O)[C@@H](N)Cc1ccc(O)cc1)C(=O)NCC(=O)N(C)[C@@H](Cc1ccccc1)C(=O)NCCO [DAMGO, Tyr-D-Ala-Gly-(NMe)Phe-Gly-ol]",treatment duration until behavioral tolerance complete,[1],≤ 8 days
same,decrease in the density of surface mu-sites (SPM),mu-opioid receptors [2],22%
same,antinociception,[3],about 80%
same,time of peak antinociceptive effect,[3],about 30 min
same,agonist character in [35S]GTPγS assay,[4],full agonist
same,effect of chronic treatment on G-protein coupling / [35S]GTPγS incorporation,[5],did not cause any change
same,Emax,[5]; read-out: E max (% over basal) MI Treated,72 ± 9%
same,Emax,[5]; read-out: E max (% over basal) SPM Treated,130 ± 14%
same,Emax,"[5]; read-out: efficacy (E max) of DAMGO in control MI, MI of vehicle administered rats, % over basal",85 ± 9%
same,Emax,"[5]; read-out: efficacy (E max) of DAMGO in control SPM, SPM of vehicle administered rats, % over basal",95 ± 5%
Tyr-D-Ala-Gly-(NMe)Phe-CH2Cl [DAMCK],treatment duration until behavioral tolerance complete,[1],≤ 8 days
same,increase in the density of mu-sites in the MI (light membrane) fraction,mu-opioid receptors [2],40%
same,antinociception,[3],about 80%
same,duration of antinociception,[3],apparently irreversible antinociception
same,effect of chronic treatment on G-protein coupling / [35S]GTPγS incorporation,[5],attenuated G-protein coupling in the MI fraction
COC(=O)/C=C/C(=O)N[C@@H]1CC[C@@]2(O)[C@H]3Cc4ccc(O)c5c4[C@@]2(CCN3CC2CC2)[C@H]1O5 [beta-funaltrexamine],reduction of the density of mu-opioid receptors throughout the brain,mu-opioid receptors [6],40–50%
